Read-outs that look alike come from different tables or passages of the source. Starred links: 1 amine or outer side, 2 acyl side, 3 side chain; linkers in the order of their positions; H or OH if unused. Positions of bridges follow the written chain, without caps; N, C: chain ends. Non-standard residues stand in square brackets, D forms with d. Residues, ends and D or L forms follow the SMILES beside them. *: point of attachment. Ala(1H-tetrazol-5-yl) = N[C@@H](Cc1nnn[nH]1)C(=O)O; NMePhe(3-Cl) = CN[C@@H](Cc1cccc(Cl)c1)C(=O)O; NMeF = CN[C@@H](Cc1ccccc1)C(=O)O; NMeGABA = CN(CCCC(=O)[*:2])[*:1]; NMeI = CC[C@H](C)[C@H](NC)C(=O)O; NMeβAla = CN(CCC(=O)[*:2])[*:1]; NMeL = CN[C@@H](CC(C)C)C(=O)O; NMeV = CN[C@H](C(=O)O)C(C)C; NMeA = CN[C@@H](C)C(=O)O; Piperidide = C1CCN(*)CC1; dNMeA = CN[C@H](C)C(=O)O; β3hA = C[C@H](N)CC(=O)O; Sar = CNCC(=O)O; tBu = CC(C)(C)*
Assays:
[1] = PAMPA (parallel artificial membrane permeability assay); assay type: in vitro ADME; details: PAMPA
Method in brief: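 Artificial membrane was 10% (w/v) egg lecithin plus 0.5% (w/v) cholesterol in dodecane on a PVDF filter. A 10 mM DMSO stock was added at 0.5% (v/v) to donor buffer (50 mM MOPSO, pH 6.5, 5.0% glycocholic acid). After 18 h at 37 °C, LC/MS or LC/UV gave donor and acceptor levels for Pe.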

[2] = Metabolic stability in human hepatic microsome; assay type: in vitro ADME; details: microsomes
[3] = membrane permeation rate (Pe), 50 mM MOPSO buffer pH 6.5 with 5.0% glycocholic acid, 37° C., 18 hours, read-out: iPAMPA Pe
[4] = pH 7.4, human hepatic microsome, NADPH(+), read-out: CL NADPH(+)

SMILES | Papp at 18 hours, 50 µM [1, 3] [×10⁻⁶ cm/s] | microsomal CLint at 1 uM [2, 4] [µL/min/mg] | Papp at 18 hours, 50 µM ([1]; pH 6.5) [×10⁻⁶ cm/s] | microsomal CLint at 1 uM ([2]; human, pH 7.4, CL NADPH(+)) [µL/min/mg]
CC[C@H](C)[C@@H]1NC(=O)[C@H](C)N(C)C(=O)[C@H](CC(C)C)N(C)C(=O)CCCN(C)C(=O)C[C@@H](C(=O)N2CCCCC2)NC(=O)[C@H](C)N(C)C(=O)[C@H](Cc2ccccc2)N(C)C(=O)[C@H]([C@@H](C)O)NC(=O)[C@H](Cc2ccccc2)N(C)C(=O)[C@H](CC(C)C)N(C)C1=O [DP-487] ([NMeGABA][NMeL][NMeA]I[NMeL][NMeF]T[NMeF][NMeA]D-Piperidide; lactam N-10) | 24 | 386 | – | –
CC[C@H](C)[C@H]1C(=O)N(C)[C@@H](CC(C)C)C(=O)N[C@@H](C)C(=O)N(C)[C@@H](CC(C)C)C(=O)N(C)[C@@H](Cc2ccccc2)C(=O)N[C@@H]([C@@H](C)O)C(=O)N(C)[C@@H](Cc2ccccc2)C(=O)N(C)[C@@H](CC(C)C)C(=O)N(C)[C@@H](C)C(=O)N[C@H](C(=O)N2CCCCC2)CC(=O)N[C@H](C(C)C)C(=O)N1C [DP-235] ([dV][NMeI][NMeL]A[NMeL][NMeF]T[NMeF][NMeL][NMeA]D-Piperidide; lactam N-11) | 9 | 58 | – | –
CC(C)C[C@H]1NC(=O)[C@H](Cc2ccccc2)N(C)C(=O)[C@H](CC(C)C)N(C)C(=O)[C@H](C)NC(=O)[C@H](CC(C)C)N(C)C(=O)[C@H](Cc2ccccc2)N(C)C(=O)[C@H](Cc2nn[nH]n2)NC(=O)C[C@@H](C(=O)N2CCCCC2)NC(=O)[C@H](CC(C)C)N(C)C(=O)[C@H](CC(C)C)N(C)C1=O [DP-909] ([Ala(1H-tetrazol-5-yl)][NMeF][NMeL]A[NMeL][NMeF][dL][NMeL][NMeL]D-Piperidide; lactam N-10) | 12 | 15 | – | –
CC[C@H](C)[C@H](NC(=O)[C@H](CC(C)C)N(C)C(=O)[C@H](Cc1ccccc1)NC(=O)[C@H](Cc1ccccc1)N(C)C(=O)[C@@H]1CC(=O)N(C)[C@@H](C)C(=O)N[C@@H](C(C)C)C(=O)N[C@@H](CC(C)C)C(=O)N(C)[C@@H](Cc2ccccc2)C(=O)N[C@@H](CC(C)C)C(=O)N[C@@H]([C@@H](C)O)C(=O)N1)C(=O)N1CCCCC1 [DP-921] ([NMeA]VL[NMeF]LTD[NMeF]F[NMeL]I-Piperidide; lactam N-7) | 0.34 | 88 | – | –
CC[C@H](C)[C@H]1C(=O)N[C@H](C(=O)N2CCCCC2)CC(=O)N[C@H](C(C)C)C(=O)N[C@@H]([C@@H](C)O)C(=O)N(C)[C@@H](C)C(=O)N(C)[C@@H](C(C)C)C(=O)N[C@@H](Cc2ccccc2)C(=O)N(C)[C@@H](CC(C)C)C(=O)N[C@@H](C)C(=O)N(C)CC(=O)N1C [DP-253] ([dV]T[NMeA][NMeV]F[NMeL]A[Sar][NMeI]D-Piperidide; lactam N-10) | 7.5 | 42 | – | –
CC[C@H](C)[C@H]1C(=O)N[C@@H](COC(C)(C)C)C(=O)N(C)[C@@H](C(C)C)C(=O)N[C@@H](C)CC(=O)N(C)[C@@H](C)C(=O)N(C)[C@@H](Cc2ccccc2)C(=O)N[C@@H](CC(C)C)C(=O)N(C)[C@@H](CC(C)C)C(=O)N[C@@H]([C@@H](C)O)C(=O)N(C)CC(=O)N1C [DP-820] (cyclo(L[NMeL]T[Sar][NMeI]S(tBu)[NMeV][β3hA][NMeA][NMeF])) | 48 | 511 | – | –
CC(C)C[C@H]1C(=O)N(C)[C@@H](C)C(=O)N[C@@H](C)C(=O)N[C@H](C(=O)N2CCCCC2)CC(=O)N(C)CCC(=O)N(C)[C@@H](Cc2ccccc2)C(=O)N(C)[C@@H](C)C(=O)N[C@@H]([C@@H](C)O)C(=O)N(C)[C@@H](C)C(=O)N[C@@H](Cc2ccccc2)C(=O)N(C)[C@@H](C(C)C)C(=O)N1C [DP-326] ([NMeβAla][NMeF][NMeA]T[NMeA]F[NMeV][NMeL][NMeA]AD-Piperidide; lactam N-11) | 2.5 | 15 | – | –
CC[C@H](C)[C@@H]1NC(=O)[C@H](Cc2ccccc2)NC(=O)[C@H]([C@@H](C)O)NC(=O)[C@H](CC(C)C)NC(=O)CCN(C)C(=O)C[C@@H](C(=O)N2CCCCC2)NC(=O)[C@H](CC(C)C)NC(=O)[C@H](Cc2ccccc2)N(C)C(=O)[C@H](Cc2ccccc2)NC(=O)[C@H](CC(C)C)NC1=O [DP-424] ([NMeβAla]LTFILF[NMeF]LD-Piperidide; lactam N-10) | 46 | 135 | – | –
CC[C@H](C)[C@H]1C(=O)N[C@H](C(=O)N2CCCCC2)CC(=O)N(C)[C@H](C)C(=O)N[C@@H](CC(C)C)C(=O)N(C)[C@@H](Cc2ccccc2)C(=O)N(C)[C@@H](CC(C)C)C(=O)NCC(=O)N(C)[C@@H](C(C)C)C(=O)N(C)[C@@H](Cc2ccccc2)C(=O)N(C)[C@@H](C)C(=O)N[C@@H]([C@@H](C)O)C(=O)N(C)[C@@H](C)C(=O)N1C [DP-94] ([dNMeA]L[NMeF][NMeL]G[NMeV][NMeF][NMeA]T[NMeA][NMeI]D-Piperidide; lactam N-12) | – | – | 28 | 17
CC[C@H](C)[C@H]1C(=O)N[C@H](C(=O)N2CCCCC2)CC(=O)N(C)CCC(=O)N(C)[C@@H](Cc2ccccc2)C(=O)N(C)[C@@H](CC(C)C)C(=O)N[C@@H]([C@@H](C)O)C(=O)N(C)CC(=O)N(C)[C@@H](CC(C)C)C(=O)N[C@@H](COC(C)(C)C)C(=O)N1C [DP-155] ([NMeβAla][NMeF][NMeL]T[Sar][NMeL]S(tBu)[NMeI]D-Piperidide; lactam N-9) | – | – | 55 | 101
CC(C)C[C@H]1C(=O)N(C)[C@@H](Cc2ccccc2)C(=O)N(C)[C@@H](Cc2ccccc2)C(=O)NCC(=O)N(C)[C@@H](C)C(=O)N[C@@H]([C@@H](C)O)C(=O)N[C@H](C(=O)N(C)[C@@H](Cc2ccccc2)C(=O)N(C)[C@@H](Cc2ccccc2)C(=O)N[C@@H](C)C(=O)N2CCCCC2)CC(=O)N(C)[C@@H](C)C(=O)N[C@@H](C(C)C)C(=O)N1C [DP-309] ([NMeA]V[NMeL][NMeF][NMeF]G[NMeA]TD[NMeF][NMeF]A-Piperidide; lactam N-9) | – | – | 26 | 212
CC[C@H](C)[C@@H]1NC(=O)[C@H](C)N(C)C(=O)[C@H](CC(C)C)N(C)C(=O)[C@H](Cc2ccccc2)NC(=O)[C@H](CC(C)C)N(C)C(=O)[C@H](CC(C)C)N(C)C(=O)[C@H](C)N(C)C(=O)[C@H](Cc2ccccc2)N(C)C(=O)[C@@H](C)N(C)C(=O)C[C@@H](C(=O)N[C@H](C(=O)N2CCCCC2)[C@@H](C)CC)NC(=O)[C@H](CC(C)C)N(C)C(=O)[C@H]([C@@H](C)O)NC(=O)[C@H](COC(C)(C)C)NC1=O [DP-963] ([dNMeA][NMeF][NMeA][NMeL][NMeL]F[NMeL][NMeA]IS(tBu)T[NMeL]DI-Piperidide; lactam N-13) | 0.1 | 18 | – | –
CC(C)C[C@H]1C(=O)N(C)[C@@H](CC(C)C)C(=O)N(C)[C@@H](CC(C)C)C(=O)N[C@H](C(=O)N2CCCCC2)CC(=O)N(C)CCC(=O)N(C)[C@@H](Cc2ccccc2)C(=O)N(C)[C@@H](CC(C)C)C(=O)N[C@@H]([C@@H](C)O)C(=O)N(C)[C@@H](C)C(=O)NCC(=O)N1C [DP-428] ([NMeβAla][NMeF][NMeL]T[NMeA]G[NMeL][NMeL][NMeL]D-Piperidide; lactam N-10) | 26 | 77 | – | –
CC[C@H](C)[C@@H]1NC(=O)[C@H](CC(C)C)N(C)C(=O)[C@@H](C(C)C)NC(=O)C[C@H](C)NC(=O)[C@H](CC(C)C)N(C)C(=O)[C@H](C)N(C)C(=O)[C@H]([C@@H](C)O)NC(=O)[C@H](Cc2cccc(Cl)c2)N(C)C(=O)[C@H](C)N(C)C1=O [DP-828] (cyclo(I[NMeA][NMePhe(3-Cl)]T[NMeA][NMeL][β3hA][dV][NMeL])) | 42 | 154 | – | –
CC(C)C[C@H]1C(=O)N(C)[C@@H](C)C(=O)N[C@@H]([C@@H](C)O)C(=O)N(C)[C@@H](C)C(=O)N(C)[C@@H](Cc2ccccc2)C(=O)N(C)[C@@H](C)C(=O)N[C@@H](C)C(=O)N(C)[C@@H](C)C(=O)N(C)[C@@H](C)C(=O)N[C@H](C(=O)N(C)[C@@H](Cc2ccccc2)C(=O)N[C@@H](C)C(=O)N2CCCCC2)CC(=O)N(C)[C@H](C)C(=O)N1C [DP-444] ([dNMeA][NMeL][NMeA]T[NMeA][NMeF][NMeA]A[NMeA][NMeA]D[NMeF]A-Piperidide; lactam N-11) | 0.72 | 3 | – | –
CC[C@H](C)[C@@H]1NC(=O)[C@H](C)N(C)C(=O)[C@H](CC(C)C)N(C)C(=O)CN(C)C(=O)[C@H]([C@@H](C)O)NC(=O)[C@H](C(C)C)N(C)C(=O)[C@H](C)N(C)C(=O)[C@H](Cc2ccccc2)NC(=O)[C@@H](C)NC(=O)C[C@@H](C(=O)N(C)[C@@H](Cc2ccccc2)C(=O)N(C)[C@@H](Cc2ccccc2)C(=O)N[C@@H](C)C(=O)N2CCCCC2)NC1=O [DP-502] ([dA]F[NMeA][NMeV]T[Sar][NMeL][NMeA]ID[NMeF][NMeF]A-Piperidide; lactam N-10) | 17 | 19 | – | –
CC[C@H](C)[C@H]1C(=O)N[C@H](C(=O)N2CCCCC2)CC(=O)N(C)[C@@H](C)C(=O)N(C)[C@@H](CC(C)C)C(=O)N(C)[C@@H](Cc2ccccc2)C(=O)N[C@@H]([C@@H](C)O)C(=O)N(C)CC(=O)N(C)[C@@H](CC(C)C)C(=O)N[C@@H](COC(C)(C)C)C(=O)N1C [DP-152] ([NMeA][NMeL][NMeF]T[Sar][NMeL]S(tBu)[NMeI]D-Piperidide; lactam N-9) | 61 | 93 | – | –
CC(C)C[C@H]1C(=O)N[C@@H](COC(C)(C)C)C(=O)N[C@H](C(=O)N2CCCCC2)CC(=O)N(C)[C@@H](C)C(=O)N(C)[C@@H](Cc2ccccc2)C(=O)N(C)[C@@H](CC(C)C)C(=O)N[C@@H]([C@@H](C)O)C(=O)N(C)CC(=O)N1C [DP-523] ([NMeA][NMeF][NMeL]T[Sar][NMeL]S(tBu)D-Piperidide; lactam N-8) | 20 | 99 | – | –

Source: patent US9409952B2, “Peptide-compound cyclization method” (Chugai Seiyaku Kabushiki Kaisha, priority 2011, dated 2016)
